The text below walks through data of ChEMBL document CHEMBL1136042, “Design, synthesis, and neuraminidase inhibitory activity of GS-4071 analogues that utilize a novel hydrophobic paradigm” (Bioorg Med Chem Lett, 2002).

As usually defined, the pKi is the negative decadic logarithm of the Ki, by convention in mol/L. Read a low pKi as a high Ki.

Molecules are shown by their SMILES. pKi: −log10 of the molar value.

The nature of this test: The compound was tested for its inhibition against Neuraminidase of the influenza RNA virus.
As for `C=CC[C@H]1CC(C(=O)O)=C[C@@H](OC(CC)CC)[C@@H]1NC(C)=O`, the pKi is 5.89.

In the case of `CC(=O)N[C@@H]1[C@@H](CCO)CC(C(=O)O)=C[C@H]1OC(C)C`, the pKi was 5.39. The value for `C=CC[C@@H]1CC(C(=O)O)=C[C@@H](OC(C)C)[C@@H]1NC(C)=O` was 4.85; that for `C=C[C@@H]1CC(C(=O)O)=C[C@@H](OC(C)C)[C@@H]1NC(C)=O` was 4.16; that for `CCO[C@@H]1C=C(C(=O)O)C[C@H](N)[C@H]1NC(C)=O` was 6.74. As to `C=CC[C@H]1CC(C(=O)O)=C[C@@H](OC(C)C)[C@@H]1NC(C)=O`, the pKi is 5.96.

`C=C[C@H]1CC(C(=O)O)=C[C@@H](OC(C)C)[C@@H]1NC(C)=O` had a pKi of 7.35.
